Holding throughout (format): cell-based
Experiment [1] concerns Geotrichum candidum (Gca). In words: Poison plate assay (Experiment 2), fungal growth and Limpel synergy. Here is the method: (§1) Name of the primary compound: imazalil (I) Formulations: (% is in w/v)
• Stock solution: 2000 ppm (w/w) • Solvent for dilutions: demineralised water • Fungal species: post harvest and seed pathogens: Geotrichum candidum (Gca) and Penicillium digitatum (Pdi) Calculated amounts of dilutions were poured into multi-well plates. Culture medium was added aseptically and uniform distribution was obtained by shaking. […] The expected activity E of a combination of active ingredients was calculated by using Limpel's formula (Richter, D. L; Pesticide Science 1987, 19: 309-315): • E=A+B−(A*B)/100 wherein A and B express the activities obtained for each of the active ingredients when applied alone. A synergistic effect is acknowledged if the measured activity M exceeds the calculated (expected) activity E (synergy indicated by figures in bold).

A further experiment has as its system Geotrichum candidum. In words: Poison plate assay (Experiment 1), MIC and Synergy Index. To be noted: 48 h, PDA, 27° C., evaluation after two days, ppm total active ingredient, read-out: MIC-values (minimum inhibitory concentration) in ppm. The text has this:
(§2) Name of the primary compound: • imazalil (I) Name of the combination partners: • boscalid (II-a) • cyproconazole (II-b) • pyraclostrobin (II-c) • triflumizole (II-d) Stock solution: 1000 ppm in DMSO
(§3) • Concentrations of total active ingredient in the combinations: a series of concentrations increasing with steps of 1/3: 0.21-0.28-0.38-0.50-0.67-0.89-1.19-1.58-2.11-2.81-3.75-5.00-6.67-8.90-11.87-15.82-21.09-28.13-37.50-50.00 ppm • Culture medium: Potato Dextrose Agiar (PDA): 4 g potato infusion, 20 g bacto dextrose and 15 g bacto agar in 1 liter deionised water • Experimental set up: 24-well plates
(§4) • Inoculum: a spore/mycelium suspension (2 μl) or a piece of agar from the margin of an actively growing colony • Culture conditions: 27° C., 70% relative humidity, dark. • Evaluation: Evaluation after two days. Synergism between component (I) and one of the components (II) was determined by a commonly used and accepted method described by Kull F. C. et al. in Applied Microbiology, 9, 538-541 (1961) using the Synergy Index, which is calculated as follows for two compounds A and B: […]
(§5) wherein: • QA is the concentration of compound A in ppm, acting alone, which produced an end point (e.g. MIC), • Qa is the concentration of compound A in ppm, in the mixture, which produced an end point (e.g. MIC), • QB is the concentration of compound B in ppm, acting alone, which produced an end point (e.g. MIC), • Qb is the concentration of compound B in ppm, in the mixture, which produced an end point (e.g. MIC). When the Synergy Index is greater than 1.0, antagonism is indicated.

Another experiment concerns Rhizoctonia solani. Described as above. To be noted: PDA, 27° C., evaluation after two days, ppm total active ingredient; for MIC: 48 h, read-out: MIC-values (minimum inhibitory concentration) in ppm.
Excerpt: as §2, §3, §4, §5

The subject of a further experiment is Colletotrichum musae. The description is as above. To be noted: PDA, 27° C., evaluation after two days, ppm total active ingredient; for MIC: 48 h, read-out: MIC-values (minimum inhibitory concentration) in ppm.
Excerpt: as §2, §3, §4, §5

A further experiment deals with Gloeosporium album. The description is as above. The note with it: PDA, 27° C., evaluation after two days, ppm total active ingredient; for MIC: Phlyctema vagabunda, 48 h, read-out: MIC-values (minimum inhibitory concentration) in ppm.
Excerpt: as §2, §3, §4, §5

The subject of experiment [2] is Penicillium digitatum (Pdi). In words: Poison plate assay (Experiment 2), fungal growth and Limpel synergy. To be noted: Table 6, Pdi; imazalil 0.02 ppm, combinations 0.02 + 0.02 ppm; conc 0 for carpropamid and fosetyl-Al alone. As to the method: as §1
• Stock solution: 2000 ppm (w/w) • Solvent for dilutions: demineralised water • Fungal species: post harvest and seed pathogens: Geotrichum candidum (Gca) and Penicillium digitatum (Pdi) Calculated amounts of dilutions were poured into multi-well plates. Culture medium was added aseptically and uniform distribution was obtained by shaking. The plates were inoculated with the test fungi and incubated during a period long enough to allow complete outgrowth of controls. • Test concentrations: noted in ppm versus growth medium (w/v): see tables • Replicates: 4 • Culture medium: PDA (Potato Dextrose Agar) • Culture conditions: 22° C. and 60% relative humidity • Inoculation: with a small piece of agar from the margin of an actively growing culture or a suspension of spores, mycelium or culture • Evaluation date: at complete outgrowth of control • Synergy calculation: Diameter of fungal growth (in mm) was measured, mean radial growth (X) and measured activity (M) were calculated. The expected activity E of a combination of active ingredients was calculated by using Limpel's formula (Richter, D. L; Pesticide Science 1987, 19: 309-315): • E=A+B−(A*B)/100 wherein A and B express the activities obtained for each of the active ingredients when applied alone. A synergistic effect is acknowledged if the measured activity M exceeds the calculated (expected) activity E (synergy indicated by figures in bold).

Where [3] appears, read: Table 7, Gca, conc 60 μM (tetraconazole 6 μM), combinations 60 + 60, (I) + (II-i) 60 + 6.
Where [4] appears, read: Table 7, Gca, conc 70 μM (tetraconazole 7 μM), combinations 70 + 70, (I) + (II-i) 70 + 7.
[5] abbreviates: Table 5, Gca, conc 20 ppm each (combinations 20 + 20).
Where [6] appears, read: Table 5, Gca, conc 25 ppm each (combinations 25/25).

Consider eight molecules from US20080234336A1, “Synergistic Imazalil Combinations” (priority 2005, published 2008).

`CCC(C)(NC(=O)c1cc(Cl)c(C)c(Cl)c1)C(=O)CCl` (stereo not drawn) [zoxamide (II-j), 3,5-dichloro-N-(3-chloro-1-ethyl-1-methyl-2-oxopropyl)-4-methyl-benzamide]: the “M = measured activity” value in experiment [1] (setting [3]) was 0; in experiment [1] (setting [4]) it was 2. The “X = mean fungal growth” value in experiment [1] (setting [3]) and in experiment [1] (setting [4]) was 15 mm each time.

As to `FC(F)C(F)(F)OCC(Cn1cncn1)c1ccc(Cl)cc1Cl` (stereo not drawn) [tetraconazole (II-i), 1-[2-(2,4-dichloro-phenyl)-3-(1,1,2,2-tetrafluoroethoxy)propyl]-1H-1,2,4-triazole], the “M = measured activity” value stood at 36 in experiment [1] (setting [5]), 45 in experiment [1] (setting [6]), 15 in experiment [1] (setting [3]) and 3 in experiment [1] (setting [4]). Also, the “X = mean fungal growth” value in experiment [1] (setting [5]) came to 9 mm; in experiment [1] (setting [6]), 8 mm; in experiment [1] (setting [3]), 13 mm; in experiment [1] (setting [4]) it was 15 mm.

Turning to `C=CCOC(Cn1ccnc1)c1ccc(Cl)cc1Cl` (stereo not drawn) [imazalil], the “M = measured activity” value in experiment [1] (setting [5]) is 38; in experiment [1] (setting [6]), 50; in experiment [1] (setting [3]), 7; in experiment [1] (setting [4]), 68; in experiment [2], 88. Also, the “X = mean fungal growth” value in experiment [1] (setting [5]) was 9 mm; in experiment [1] (setting [6]), 7 mm; in experiment [1] (setting [3]), 14 mm; in experiment [1] (setting [4]), 5 mm; in experiment [2], 2 mm. The MIC in the experiment with Geotrichum candidum was 66.7 µg/mL; in the experiment on Rhizoctonia solani, 50 µg/mL; with Colletotrichum musae, 8.9 µg/mL; in the experiment on Gloeosporium album, 1.58 µg/mL.

In the case of “(E)-4-chloro-ααα-trifluoro-N-(1-imidazol-1-yl-2-propoxyethylidene)-o-toluidine [triflumizole]”, the “MIC-values (minimum inhibitory concentration) in ppm” value in the experiment with Rhizoctonia solani stood at 37.50 ppm; with Colletotrichum musae, 28.13 ppm; in the experiment with Gloeosporium album, 6.67 ppm.

`CC(C1CC1)C(O)(Cn1cncn1)c1ccc(Cl)cc1` (stereo not drawn) [cyproconazole, α-(4-chloro-phenyl)-α-(1-cyclopropyl-ethyl)-1H-1,2,4-triazole-1-ethanol]: the MIC in the experiment on Geotrichum candidum came out at 6.67 µg/mL; in the experiment on Rhizoctonia solani it was 11.9 µg/mL; in the experiment with Colletotrichum musae, 66.7 µg/mL; in the experiment on Gloeosporium album, 2.81 µg/mL.

For the molecule `CSC(=O)c1cccc2nnsc12` [acibenzolar-S-me (II-e), benzo[1,2,3]-thiadiazole-7-carbothioic acid S-methyl ester], in experiment [1] (setting [3]), the “M = measured activity” value came out at 7 and the “X = mean fungal growth” value is recorded as 14 mm. In addition, in experiment [1] (setting [4]), the “M = measured activity” value is on record as 3 and the “X = mean fungal growth” value was 15 mm.

For `COC(=O)N(OC)c1ccccc1COc1ccn(-c2ccc(Cl)cc2)n1` [pyraclostrobin, methyl N-(2-[1-(4-chlorophenyl)-1H-pyrazol-3-yloxymethyl]phenyl](N-methoxy)carbamate], the MIC with Rhizoctonia solani, in the experiment on Colletotrichum musae and in the experiment on Gloeosporium album was 66.7 µg/mL in each case.

For `CCC1(C(=O)NC(C)c2ccc(Cl)cc2)C(C)C1(Cl)Cl` (stereo not drawn) [carpropamid (II-f), 2,2-dichloro-N-[1-(4-chlorophenyl)ethyl]-1-ethyl-3-methyl-cyclopropanecarboxamide], in experiment [2], the “M = measured activity” value is listed as 0 and the “X = mean fungal growth” value came to 15 mm.
